Assay results published in patent US20240287172A1, “PROTEIN BINDERS TO IRHOM2 EPITOPES” (SCIRHOM GMBH, priority 2019, published 2024).

System: PMA-induced release of endogenous HB-EGF from human THP-1 monocytic cells
Experiment: ELISA-based HB-EGF release assay, PMA-induced, THP-1 cells
Assay type: cell-based
Settings: PMA 25 ng/ml, 6 hours, murine (m) and chimeric (ch) antibodies and IgG at 3 μg/ml, Batimastat at 10 μM
Method: In brief, on day 1, Nunc black MaxiSorp® 96-well plates (Thermo Fisher Scientific, USA) were coated for 7 hours with 100 μl per well of rat anti-human HB-EGF capture antibody (provided as part of the DuoSet ELISA kit) at 2 μg/ml TBS at room temperature. Capture antibody solution was removed and MaxiSorp® plates were blocked with 300 μl per well of TBS, 1% BSA at room temperature for 3 hours. […]
Following another round of 4 times washing with 350 μl TBS-T (Carl Roth, Germany) per well on a 96-head plate washer (Tecan Group, Switzerland) and careful removal of all buffer traces after the fourth cycle, 100 μl AttoPhos substrate solution (Promega, USA) per well was added for incubation in the dark at room temperature for 1 hour. Using an infinite M1000 (Tecan Group, Switzerland) microplate reader, the fluorescence of each well was collected at an excitation wavelength of 435 nm and an emission wavelength of 555 nm.

Compound `CNC(=O)[C@H](Cc1ccccc1)NC(=O)[C@H](CC(C)C)[C@H](CSc1cccs1)C(=O)NO` [Batimastat] has an inhibition at 10 µM of 98.9%.
